Results as given in paper PMC8648000 (Bioorganic & medicinal chemistry letters, 2021).

Legend:
human M4 (hM4) receptor = biological target: T1, human M4 (hM4) receptor (Homo sapiens, UniProt P08173); assay type: cell-based; conditions: for hM4 EC50: hM4/Gqi5-CHO cells, EC20 acetylcholine, n=1 experiment in triplicate; for fold increase in functional M4 potency versus 24e: compared with 24e
T1 sequence (P08173 1-479): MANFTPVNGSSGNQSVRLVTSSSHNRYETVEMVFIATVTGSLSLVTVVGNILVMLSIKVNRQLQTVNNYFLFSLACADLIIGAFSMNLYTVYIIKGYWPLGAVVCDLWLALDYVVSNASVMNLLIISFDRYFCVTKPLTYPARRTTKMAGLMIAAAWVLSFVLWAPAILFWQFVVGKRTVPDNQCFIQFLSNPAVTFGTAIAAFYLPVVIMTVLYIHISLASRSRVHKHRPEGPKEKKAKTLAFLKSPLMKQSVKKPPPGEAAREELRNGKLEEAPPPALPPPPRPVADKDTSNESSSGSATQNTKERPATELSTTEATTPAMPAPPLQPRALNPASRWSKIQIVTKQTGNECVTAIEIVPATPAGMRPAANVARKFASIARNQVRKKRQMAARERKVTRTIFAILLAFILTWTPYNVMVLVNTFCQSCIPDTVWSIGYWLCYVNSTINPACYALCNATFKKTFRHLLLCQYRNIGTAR

[1] = Rat microsomal intrinsic clearance and predicted hepatic clearance; assay type: in vitro ADME; conditions: microsomes
[2] = Human microsomal intrinsic clearance and predicted hepatic clearance; assay type: in vitro ADME; conditions: microsomes
Rat plasma:brain level = assay type: in vivo; conditions: SD, brain and plasma, iv, 0.2 mg/kg; for Kp at […]: Kpuu, brain:plasma, SD Rat, 0.2 mg/kg IV

Cc1cc(C)c2c(n1)sc1c(NCc3ccc(C(C)(C)O)cc3F)ncnc12 [16n]
fold decrease (loss) in hM4 potency versus 16m (human M4 (hM4) receptor; compared with 16m): ~ 2.5 fold

Cc1cc(C)c2c(n1)sc1c(NCc3ccc(S(C)(=O)=O)cc3)ncnc12 [16o]
EC50 (human M4 (hM4) receptor): < 0.35 µM
CLint scaled [1]: 10.6 L/h/kg
CLint scaled [2]: 1.68 L/h/kg
Kp uu at […] (Rat plasma:brain level): 0.21

Cc1cc(C)c2c(n1)sc1c(N3CCCC3)ncnc12 [16w]
EC50 (human M4 (hM4) receptor): < 0.35 µM
CLint scaled [1]: 114 L/h/kg
CLint scaled [2]: 8.04 L/h/kg
Kp uu at […] (Rat plasma:brain level): 0.65
Kp at […] (Rat plasma:brain level): 0.35 to 0.65

Cc1cc(C)c2c(n1)sc1c(N3CCC3)ncnc12 [16x]
EC50 (human M4 (hM4) receptor): < 0.35 µM
CLint scaled [1]: 44.5 L/h/kg
CLint scaled [2]: 17.8 L/h/kg
Kp uu at […] (Rat plasma:brain level): 0.27

Cc1cc(C)c2c(n1)sc1c(N3CC4(COC4)C3)ncnc12 [16y]
CLint scaled [1]: 35.6 L/h/kg
CLint scaled [2]: 7.74 L/h/kg
Kp uu at […] (Rat plasma:brain level): 0.4
Kp at […] (Rat plasma:brain level): 0.35 to 0.65

Cc1cc(C)c2c(n1)oc1c(N3CCCC3)ncnc12 [17a]
hM4 EC50 (human M4 (hM4) receptor): complete loss of activity

Cc1cc(C)c2c(n1)oc1c(NC3CCC3)ncnc12 [17c]
fold potency decrease versus 16v (human M4 (hM4) receptor; compared with 16v): 4.4 fold

COc1ccc(CNc2ncnc3c2oc2nc(C)cc(C)c23)cc1F [17d]
hM4 EC50 (human M4 (hM4) receptor): complete loss of activity

Cc1cc(C)c2c(n1)oc1c(NCc3ccc(C(C)(C)O)cc3)ncnc12 [17e]
hM4 EC50 (human M4 (hM4) receptor): complete loss of activity

Cc1cc(C)c2c(n1)oc1c(NC3CN(c4ncc(C(F)(F)F)cn4)C3)ncnc12 [17f]
hM4 EC50 (human M4 (hM4) receptor): complete loss of activity

Cc1cc(C)c2c(n1)sc1c(NCc3ccc(C(C)(C)O)cc3)nccc12 [18b]
EC50 (human M4 (hM4) receptor): < 0.35 µM
fold increase in hM4 potency versus 16m (human M4 (hM4) receptor; compared with 16m): ~ 2.8 fold
CLint scaled [1]: 20 L/h/kg
CLint scaled [2]: 3 L/h/kg
Kp uu at […] (Rat plasma:brain level): 1.16

Cc1cc(C)c2c(n1)sc1c(NC3CN(c4ncc(C(F)(F)F)cn4)C3)nccc12 [18c]
fold increase in hM4 potency versus 16p (human M4 (hM4) receptor; compared with 16p): ~ 44 fold

Cc1cc(C)c2c(n1)sc1c(N3CCCC3)nccc12 [18d]
EC50 (human M4 (hM4) receptor): < 0.35 µM
CLint scaled [1]: 126 L/h/kg
CLint scaled [2]: 9.66 L/h/kg
Kp uu at […] (Rat plasma:brain level): 4.87

Cc1cc(C)c2c(n1)sc1c(NC3CCC3)nccc12 [18g]
EC50 (human M4 (hM4) receptor): < 0.35 µM
fold increase in functional hM4 potency versus 16v (human M4 (hM4) receptor; compared with 16v): ~ 4 fold
fold increase in human M4 activity versus parent compound VU0152100 (human M4 (hM4) receptor; compared with VU0152100): 6 fold
CLint scaled [1]: 232 L/h/kg
CLint scaled [2]: 20.7 L/h/kg
Kp uu at […] (Rat plasma:brain level): 4.18

Cc1cc(C)c2c(n1)sc1c(C3CCOCC3)ncnc12 [24d]
fold increase in hM4 functional potency versus 24a (human M4 (hM4) receptor; compared with 24a): ~45 fold

Cc1cc(C)c2c(n1)sc1c(C3CCNCC3)ncnc12 [24e]
fold loss of hM4 functional potency versus 24d (human M4 (hM4) receptor; compared with 24d): ~ 40 fold

Cc1cc(C)c2c(n1)sc1c(C3CCN(C(=O)C4CC4)CC3)ncnc12 [28a]
fold increase in functional M4 potency versus 24e (human M4 (hM4) receptor): ~ 10 fold

Cc1cc(C)c2c(n1)sc1c(C3CCN(C(=O)C4(C)CC4)CC3)ncnc12 [28b]
fold increase in functional M4 potency versus 24e (human M4 (hM4) receptor): 26 fold
CLint scaled [1]: 22 L/h/kg
CLint scaled [2]: 1.5 L/h/kg
Kp uu at […] (Rat plasma:brain level): 0.35
Kp at […] (Rat plasma:brain level): 0.35 to 0.65

Cc1cc(C)c2c(n1)sc1c(OCc3ccc(C(C)(C)O)cc3)ncnc12 [compound 19]
fold decrease (loss) in hM4 potency versus 16m (human M4 (hM4) receptor; compared with 16m): 9.6 fold

Cc1cc(C)c2c(n1)sc1c(C3CCN(c4cncc(F)c4)CC3)ncnc12 [compound 26]
hM4 EC50 (human M4 (hM4) receptor): complete loss of activity

Cc1cc(C)c2c(n1)sc1c(C3CCN(CC4CC4)CC3)ncnc12 [compound 30]
hM4 EC50 (human M4 (hM4) receptor): complete loss of M4 potency
